{
  "source": "patent US9364448B2",
  "about": "“Nitisinone for treatment of oculocutaneous/ocular albinism and for increasing pigmentation” (The United States of America, as represented by the …, priority 2010, dated 2016)",
  "key": {"[1]": {"test_system": "C57BL/6J-Tyr^c-2J/c-2J mice (OCA1a model)", "assay": "Coat and ocular pigmentation, clinical examination, Tyr^c-2J/c-2J mice", "format": "in vivo, mouse", "details": "one month", "protocol": "Animal Husbandry and Clinical Examination. C57BL/6J mice (Stock #000664), C57BL/6JTyr^c-2J/c-2J mice (Stock #000058, MGI ID#1855985), and C57BL/6Tyr^c-h/c-h (Stock #000104, MGI ID#1855979) were obtained from the Jackson Laboratory (Bar Harbor, Me.). Mice were housed according to the institutional Animal Review Board standards with a 14 hour light/10 hour dark cycle. These studies conformed to the principles for laboratory animal research outlined by the Animal Welfare Act (NIH/HHS) and the ARVO Statement for the Use of Animals in Ophthalmic and Vision Research and were approved by the Institutional Animal Care and Use Committee of the National Eye Institute. Clinical examination and imaging of the anterior segment of mice were performed on gently-restrained, awake mice using a Haag-Streit BQ slit lamp and Imaging Module IM900® software (Haag-Streit, Inc., Mason, Ohio). […]\nAt the beginning of the study, baseline plasma concentrations of tyrosine, coat color (gross and microscopic), anterior segment pigment, and posterior segment pigment were documented for each mouse prior to initiating experiments. […] It is known that a possible side effect of NTBC treatment is corneal irritation, which is monitored daily. […] At the end of four weeks time, plasma tyrosine concentrations were assessed in both treated and control animals. […]"}, "[2]": {"biological_target": "T1, H420R mutant tyrosinase in Melan-c cells (Mus musculus, UniProt P11344, H420R)", "T1 construct": "expressed in transfected cells; host or cells: Melan-c cells (albino mouse melanocytes), Fugene HD transfection", "T1 sequence (P11344 19-533 H420R)": "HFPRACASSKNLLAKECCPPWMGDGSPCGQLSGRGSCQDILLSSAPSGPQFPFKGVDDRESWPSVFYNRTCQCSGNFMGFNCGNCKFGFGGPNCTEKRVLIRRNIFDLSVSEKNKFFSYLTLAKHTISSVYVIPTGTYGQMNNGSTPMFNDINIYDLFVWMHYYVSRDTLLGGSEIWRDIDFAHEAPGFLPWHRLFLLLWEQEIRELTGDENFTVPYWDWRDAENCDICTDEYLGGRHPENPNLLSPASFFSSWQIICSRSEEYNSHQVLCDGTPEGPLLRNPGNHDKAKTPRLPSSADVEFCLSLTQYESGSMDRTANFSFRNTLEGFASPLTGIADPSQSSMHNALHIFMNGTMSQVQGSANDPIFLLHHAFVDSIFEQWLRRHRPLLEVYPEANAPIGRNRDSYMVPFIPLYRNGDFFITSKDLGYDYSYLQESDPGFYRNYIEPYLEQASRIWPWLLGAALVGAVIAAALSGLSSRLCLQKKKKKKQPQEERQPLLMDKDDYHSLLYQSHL", "assay": "Tyrosinase enzyme activity in transfected Melan-c cells, H420R", "format": "cell-based", "details": "1 mM tyrosine; Melan-c cells expressing H420R; p=0.03", "protocol": "Melan-c cell cultures. Melan-c cells (melanocytes derived from mice homozygous for the albino mutation (D. C. Bennett et al., Development, 105:379 (1989)) were cultured in RPMI 1640, pH 6.9 supplemented with 5% fetal bovine serum (FBS), streptomycin-penicillin (100 μg/ml each), 200 nM tetradeconyl phorbol acetate (TPA), and 100 μM β-mercaptoethanol, at 37° C. in 10% CO2. Cells were transfected using Fugene HD reagent according to the manufacturer's instructions (Roche Diagnostics Inc., Indianapolis, Ind.) in presence or absence of 1 mM tyrosine. After 24 hours, cells were washed twice with saline phosphate buffer, harvested in 10 mM sodium phosphate, pH 6.8, containing 1% Igepal CA-630 and protease inhibitor (Roche), and microcentrifuged for 30 minutes at 13,200×g, at a temperature of about 4° C. to obtain a protein lysate.\nDiphenol oxidase activity of tyrosinase was determined spectrophotometrically according to Slominski et al., J. Invest. Dermatol., 96:172 (1991), with minor modifications. Briefly, the reaction mixtures contained 7 mM L-dopa in 0.1 M sodium phosphate buffer (pH 6.8) and protein lysate (20 mg/ml) was incubated at 37° C. and monitored by measuring the absorbance at 475 nm. All experiments were conducted in triplicate. […]"}},
  "note": "Entries after “also recorded” stand apart in the source; their conditions may differ.",
  "data": [
    {"smiles": "O=C1CCCC(=O)C1C(=O)c1ccc(C(F)(F)F)cc1[N+](=O)[O-]", "note": "[NTBC, 2-(-2-nitro-4 trifluoromethylbenzoyl)-1,3 cyclohexanedione]", "values": [
      {"measurement": "Phenotypic changes", "setting": "[1]; 1 mg/kg every other day by oral gavage", "result": "no phenotypic changes"},
      {"measurement": "Coat color, fundus pigmentation, iris transillumination (coat and ocular pigmentation)", "setting": "[1]; 4 mg/kg orally every other day, 4 mg/kg", "result": "no difference; also recorded: grossly unchanged"}
    ]},
    {"smiles": "N[C@@H](Cc1ccc(O)cc1)C(=O)O", "note": "[tyrosine]", "values": [
      {"measurement": "Tyrosinase enzyme activity over baseline", "setting": "[2]", "result": "increased enzyme activity over baseline"}
    ]}
  ]
}
